According to ChEMBL document CHEMBL4813957, “Antitubercular properties of thiazolidin-4-ones - A review” (Eur J Med Chem, 2021):
Values after ≈ are worked out from the molar mass of the structure shown.

System: Mycobacterium tuberculosis variant bovis
Test: Antimycobacterial activity against Mycobacterium bovis BCG ATCC 35743 measured on 8th to 12th day by nitrate reductase assay
Type: functional
Conditions: BCG str. ATCC 35743, time 8-12 day

Row | Structure (SMILES) | IC90
1 | Cc1cc(NS(=O)(=O)c2ccc(N3C(=O)CSC3c3c(F)cccc3F)cc2)no1 (stereo not given) | 0.058 µg/mL (≈ 0.128 µM)
2 | Cc1cc(NS(=O)(=O)c2ccc(N3C(=O)CSC3c3ccc(Cl)cc3)cc2)no1 (stereo not given) | 0.058 µg/mL (≈ 0.129 µM)
3 | Cc1cc(NS(=O)(=O)c2ccc(N3C(=O)CSC3c3ccc(C(F)(F)F)cc3)cc2)no1 (stereo not given) | 0.058 µg/mL (≈ 0.12 µM)
4 | Cc1cc(NS(=O)(=O)c2ccc(N3C(=O)CSC3c3c(Cl)cccc3Cl)cc2)no1 (stereo not given) | 0.058 µg/mL (≈ 0.12 µM)
5 | Cc1cc(NS(=O)(=O)c2ccc(N3C(=O)CSC3c3ccc(F)cc3)cc2)no1 (stereo not given) | 0.058 µg/mL (≈ 0.134 µM)
